# Laboratory results from ChEMBL document CHEMBL3430912, “GSK Tres Cantos Anti-Kinetoplastid Screening (TCAKS) Data”.
# pIC50: −log10 of the molar value.
# Assays:
# Trypanosoma cruzi [1] = test: GSK_TCAKS: pIC50 Trypanosoma cruzi viability assay using beta-GAL activity. This assay was run at single shot at 5uM compound concentration per well. The biological reagents consisted of NIH-3T3 host cells and trypomastigotes parasitic cells; both cell types were set to a 3.3 * 10^5 cells/mL dilution in assay DMEM by means of a CASY cell counter device using a 60um capillary. 6 uL of the mixture were dispensed per well (about 1 * 10^3 host-cells and 1 * 10^3 parasites) with a Multidrop Combi dispenser. […] In all wells, the percentage of DMSO never exceeded 0.5%. Plates incubated for four days at 37C, 5% CO2. The substrate used for the assay fluorescence intensity (FLINT) readout was resorufin-beta-D-galactopiranoside (Sigma-Aldrich) at 5uM per well. It was diluted in PBS supplemented with the soft detergent Igepal (Fluka).; type: functional, organism-based, Mus musculus; details: Tulahuen, NIH3T3
# Trypanosoma cruzi [2] = test: (§1) GSK_TCAKS: pIC50 Trypanosoma cruzi Imaging: Infected Cells. […] Cells were then washed once with PBS before infection. T. cruzi trypomastigotes, collected at days 5 to 8 after infection from LLC-MK2 parasite infected cultures, were allowed to swim out for 4h at 37C from a centrifuged pellet (2,500 rpm/10 min/room temperature). Trypomastigotes were then collected and counted in a CASY Cell Counter. Trypomastigotes, in supplemented DMEM, were added to H9c2 cultures in a multiplicity of infection of 1 and incubated for 18 h. Cells were washed once with PBS before incubation of the infected H9c2 monolayer with trypsin (Life-Technologies) to detach cells from the flask. Cells were counted in a CASY Cell Counter using a 150 um capillary and their density set at 5 * 10^4 cells per mL in supplemented assay DMEM. Infected H9c2 were dispensed into 384-well poly-lysine coated assay plates at 50uL per well using a Multidrop Combi dispenser. After seeding them, the plates were incubated at 37C, 5% CO2 for 72h. Cultures were then fixed and stained by addition of 50 uL of a solution containing 8% formaldehyde and 4 uM DRAQ5 DNA dye (BioStatus, UK) per well. […] Five images were collected per well for reliable statistical analysis. Automated image analysis was performed with a script developed on Acapella High Content Imaging and Analysis Software (PerkinElmer). Output: percentage of infected cells per well as a second infection marker.; type: functional, organism-based, Rattus norvegicus; details: H9c2, 4 h
# Trypanosoma cruzi [3] = test: GSK_TCAKS: pIC50 Trypanosoma cruzi Imaging: Amastigotes/Cell. […] Cells were then washed once with PBS before infection. T. cruzi trypomastigotes, collected at days 5 to 8 after infection from LLC-MK2 parasite infected cultures, were allowed to swim out for 4h at 37C from a centrifuged pellet (2,500 rpm/10 min/room temperature). Trypomastigotes were then collected and counted in a CASY Cell Counter. Trypomastigotes, in supplemented DMEM, were added to H9c2 cultures in a multiplicity of infection of 1 and incubated for 18 h. Cells were washed once with PBS before incubation of the infected H9c2 monolayer with trypsin (Life-Technologies) to detach cells from the flask. Cells were counted in a CASY Cell Counter using a 150 um capillary and their density set at 5 * 10^4 cells per mL in supplemented assay DMEM. Infected H9c2 were dispensed into 384-well poly-lysine coated assay plates at 50uL per well using a Multidrop Combi dispenser. After seeding them, the plates were incubated at 37C, 5% CO2 for 72h. Cultures were then fixed and stained by addition of 50 uL of a solution containing 8% formaldehyde and 4 uM DRAQ5 DNA dye (BioStatus, UK) per well. […] Five images were collected per well for reliable statistical analysis. Automated image analysis was performed with a script developed on Acapella High Content Imaging and Analysis Software (PerkinElmer). Output: number of amastigotes per cell as infection level measurement.; type: functional, organism-based, Rattus norvegicus; details: H9c2, 4 h
# Trypanosoma cruzi [4] = test: as §1, with “H2C9” for “Trypanosoma cruzi”, “H9c2 Host Cardiomyocytes.” for “Infected Cells.”, “Number” for “percentage”, “H9c2 Host Cardiomyocytes nuclei to determine drug-related cytotoxicity.” for “infected cells per well as a second infection marker.”; type: functional, organism-based, Rattus norvegicus; details: H9c2, 4 h
# Leishmania donovani [5] = test: GSK_TCAKS: pIC50 Leishmania donovani viability assay using fluorescence intensity. Assay plates (1536-well) were prepared by adding 30nL per well of compound. For single shot assay, the final compound concentration was 5uM. […] Briefly, eGFP LdBOB axenic amastigotes were harvested, fixed and counted in a CASY cell counter (Roche-Applied Science). A final concentration of 1.5 * 10^5 cells per well were prepared in amastigote media containing 500 U/mL penicillin/streptomycin (Invitrogen) and 6uL was dispensed to each experimental well using a Multidrop Combi dispenser (Thermo Scientific). 6uL of assay media was dispensed to control columns used as reference for 100% compound response. Following incubation for 72 h at 37C, 5% CO2, 2 uL of resazurin was added to each well at a final concentration of 0.5 mM in phosphate buffered saline (PBS) with IGEPAL (Sigma-Aldrich), 0.05% (v/v).; type: functional, organism-based
# Leishmania donovani [6] = test: GSK_TCAKS: pIC50 Leishmania donovani Imaging: Infected Macrophages. Assay plates (384-well) were prepared by adding 250nL of compound to each well. For single shot assay, the final compound concentration was 5 uM. […] Automated image analysis was performed with a script developed on Acapella High Content Imaging and Analysis Software (PerkinElmer). Output: Percent of infected macrophage cells were reported for each well.; type: functional, organism-based, Homo sapiens; details: THP-1
# Leishmania donovani [7] = test: GSK_TCAKS: pIC50 Leishmania donovani Imaging: Amastigotes/Macrophages. Assay plates (384-well) were prepared by adding 250nL of compound to each well. For single shot assay, the final compound concentration was 5 uM. […] Automated image analysis was performed with a script developed on Acapella High Content Imaging and Analysis Software (PerkinElmer). Output: Average number of amastigotes per macrophage cell were reported for each well.; type: functional, organism-based, Homo sapiens; details: THP-1
# Leishmania donovani [8] = test: GSK_TCAKS: pIC50 Leishmania donovani Imaging: THP-1 Host Macrophages. Assay plates (384-well) were prepared by adding 250nL of compound to each well. For single shot assay, the final compound concentration was 5 uM. […] Automated image analysis was performed with a script developed on Acapella High Content Imaging and Analysis Software (PerkinElmer). Output: THP-1 cell count were reported for each well.; type: functional, organism-based, Homo sapiens
# [9] = test system: Trypanosoma brucei brucei; test: GSK_TCAKS: pIC50 Trypanosoma brucei viability assay using fluorescence intensity. Assay plates (1536-well) were prepared by dispensing 25nL of compound solution per well using an Echo acoustic dispenser (Labcyte).; type: functional, organism-based; details: Lister 427, 2 h
# [10] = test system: Trypanosoma brucei brucei; test: GSK_TCAKS: pIC50 Trypanosoma brucei viability assay using luminiscence. Assay plates (1536-well) were prepared. T. brucei cultures were harvested and counted in a CASY cell counter. A parasite suspension was prepared at a final concentration of 5 * 10^4 cells/mL in complete HMI9 medium and 6uL was dispensed to all wells containing compounds using a Multidrop Combi dispenser. 6uL of HMI9 media with 0.4% DMSO were dispensed to control columns. Plates were incubated for 24 h at 37C, 5% CO2 then tempered for 10 min at room temperature. ATP content was quantified by adding 4 uL of CellTiter-Glo Reagent (Promega) according to the manufacturer's instructions. Luminescence was measured using a ViewLux.; type: functional, organism-based; details: Lister 427, CASY
# [11] = GSK_TCAKS: pIC50 HepG2 human cell line viability assay using luminiscence. […] Seeding density was checked to ensure that new mono-layers were not more than 50% confluent at the time of harvesting. Cell suspension was added to 500 mL of the same medium at a final density of 1.2 * 10^5 cells/mL. This cell suspension was dispensed (25 uL, 3000 cells per well) into 384-well clear-bottom plates using a Multidrop Combi dispenser. Prior to addition of the cell suspension, the screening compounds (250 nL) were pre-dispensed into the plates with an Echo liquid handler. Plates were incubated for 48 h at 37C, 5% CO2. After incubation, plates equilibrated at room temperature for 30 min before proceeding to develop the luminescent signal. The signal developer, CellTiter-Glo Reagent, was allowed to equilibrate at room temperature for 30 min and added to the plates (25uL per well) using a Multidrop Combi dispenser. Plates were left for 10 min at room temperature for stabilization and then read using a ViewLux.; type: toxicity, cell-based
# [12] = molecular target: Sterol 14-alpha demethylase (Trypanosoma cruzi (strain CL Brener), UniProt Q7Z1V1); test: GSK_TCAKS: pIC50 CYP51 from Trypanosoma cruzi.; type: functional
# Sterol 14-alpha demethylase, sequence (Q7Z1V1 whole entry): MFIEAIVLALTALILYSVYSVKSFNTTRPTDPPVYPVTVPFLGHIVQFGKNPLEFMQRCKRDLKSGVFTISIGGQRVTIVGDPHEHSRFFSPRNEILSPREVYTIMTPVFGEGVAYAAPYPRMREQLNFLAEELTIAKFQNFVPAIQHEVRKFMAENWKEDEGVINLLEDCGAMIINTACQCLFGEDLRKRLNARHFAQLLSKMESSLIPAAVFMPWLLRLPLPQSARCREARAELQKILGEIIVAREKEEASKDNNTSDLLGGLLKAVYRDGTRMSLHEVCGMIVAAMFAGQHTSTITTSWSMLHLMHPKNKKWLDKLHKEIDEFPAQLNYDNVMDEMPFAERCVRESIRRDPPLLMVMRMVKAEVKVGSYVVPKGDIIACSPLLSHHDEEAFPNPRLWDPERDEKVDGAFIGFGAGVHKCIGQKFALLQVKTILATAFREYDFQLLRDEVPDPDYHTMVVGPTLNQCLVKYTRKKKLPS
SMILES,pIC50 (Trypanosoma cruzi [1]),pIC50 (Trypanosoma cruzi [2]),pIC50 (Trypanosoma cruzi [3]),pIC50 (Trypanosoma cruzi [4]),pIC50 (Leishmania donovani [5]),pIC50 (Leishmania donovani [6]),pIC50 (Leishmania donovani [7]),pIC50 (Leishmania donovani [8]),pIC50 [9],pIC50 [10],IC50 at 48 h [11] [µM],pIC50 [12]
Cc1nn(-c2nc(N)nc(-c3ccccn3)n2)c(C)c1Cc1ccccc1,5.60,5.50,5.70,4.70,5.30,5.50,5.60,< 4.30,< 4.40,5.20,> 100,4.20
COc1ccc(NC(=O)c2ccc(NC(=O)CN(c3ccccc3C)S(C)(=O)=O)cc2)cc1,4.50,4.60,4.70,4.60,< 4.30,< 4.30,5.10,< 4.30,6.70,6.10,39.8,5.20
O=c1ccc2ccc(F)c3c2n1C[C@H]3CN1CCN(CC(O)c2cc3c(cn2)OCS3)CC1 (some centres not stated),6.15,6.20,6.50,< 4.30,4.70,< 4.30,< 4.30,< 4.30,6.70,6.40,> 100,< 4.00
COC(=O)c1ccc(-c2cnc3ccc(NCc4ccccn4)nn23)cc1,5.10,5.10,5.30,< 4.30,4.90,< 4.30,4.80,4.90,6.20,6.00,100,5.90
COc1ccc(C2CC(c3ccc(NS(C)(=O)=O)cc3)=NN2C(=O)c2cccs2)cc1OC (configuration not stated),4.60,4.50,4.80,< 4.30,4.90,5.30,5.40,< 4.30,4.80,4.60,> 100,4.90
CS(=O)(=O)N[C@H]1CC[C@H](Nc2ncc(Br)c(Nc3ccccc3C(N)=O)n2)CC1,5.10,5.30,5.70,6.30,6.00,5.70,6.10,6.30,6.80,7.10,> 100,< 4.00
COc1ccc(S(=O)(=O)Nc2ccc(CN3CCN(C(=O)c4cccc(C#N)c4)CC3)cc2)cc1,6.00,6.00,6.10,< 4.30,4.50,< 4.30,< 4.30,< 4.30,6.40,6.20,> 100,< 4.00
COc1ccc(Nc2nc(-c3ccccn3)cs2)c(OC)c1,5.40,5.10,5.30,5.70,5.20,5.60,5.70,< 4.30,4.70,4.60,> 100,4.70
CCn1c(-c2nonc2N)nc2c([C@@H](C)O)ncc(O[C@H](CN)c3ccccc3)c21,5.10,5.00,5.10,6.20,4.70,5.30,5.50,5.50,6.20,6.10,79.4,4.60
O=C(CSc1nnc2ccc(-c3ccc(F)cc3)nn12)N1CCCCC1,5.60,5.70,6.00,< 4.30,< 4.30,< 4.30,< 4.30,5.20,6.40,6.30,> 100,< 4.00
CCN(CC)c1ncc(C(=O)c2ccc([N+](=O)[O-])o2)s1,5.40,4.90,5.10,5.30,5.30,5.00,5.00,5.20,7.00,6.40,15.8,4.40
